Results reported in ChEMBL document CHEMBL1144227, “2,2'-Pyridoin derivatives protect HL-60 cells against oxidative stress” (Bioorg Med Chem Lett, 2008).
Active and inactive are the calls of the source. No cut-off for these calls is given here.

Experiments:
[1] = system: HL-60; assay: Cytoprotective activity against hydrogen peroxide-induced cell death in human HL-60 cells assessed as cell viability at 30 uM after 24 hrs by trypan blue exclusion assay; type: functional; details: for viability at 30 µM: HL-60, 24 h, read-out: Activity
[2] = system: HL-60; assay: Toxicity against human HL-60 cells at 100 uM after 24 hrs by trypan blue exclusion assay; type: cell-based; details: hl-60, 24 h
[3] = Antioxidant activity assessed as inhibition of lipid peroxidation; type: functional
[4] = system: HL-60; assay: Toxicity against human HL-60 cells at 60 uM after 24 hrs by trypan blue exclusion assay; type: cell-based; details: hl-60, 24 h
[5] = system: HL-60; assay: Radical scavenging activity in human HL-60 cells assessed as reduction of hydrogen peroxide-induced ROS generation at 30 uM after 1 hr by 2',7'-dichlorofluorescein diacetate based flow cytometry; type: functional, cell-based
[6] = system: HL-60; assay: Radical scavenging activity in human HL-60 cells assessed as reduction of hydrogen peroxide-induced ROS generation at 30 uM administered 3 hrs before H2O2 challenge measured after 1 hr by 2',7'-dichlorofluorescein diacetate based flow cytometry; type: functional, cell-based

| Structure (SMILES) | Activity [1] | Activity [2] | viability at 30 µM [1] [%] | Activity [3] | Activity [4] | Activity [5] | Activity [6] |
| --- | --- | --- | --- | --- | --- | --- | --- |
| Cc1cccc(C(=O)C(=O)c2cccc(C)n2)n1 | Active | Non-toxic |  |  |  |  |  |
| Cc1ccc(/C(O)=C(\O)c2ccc(C)cn2)nc1 |  |  | 51.9 | Active | Non-toxic | Active |  |
| O=C(C(=O)c1ccccn1)c1ccccn1 | Active | Non-toxic |  |  |  |  |  |
| COc1cccc(/C(O)=C(\O)c2cccc(OC)n2)n1 |  | Non-toxic | 51.9 | Active |  | Active |  |
| O=C1O[C@H]([C@@H](O)CO)C(O)=C1O [ASCORBIC ACID] |  |  | 37.9 |  |  | Active | Active |
| COc1ccc(/C(O)=C(\O)c2ccc(OC)cn2)nc1 |  |  | 51.9 | Active | Non-toxic | Active |  |
| O/C(=C(/O)c1ccccn1)c1ccccn1 |  | Non-toxic | 42.1 |  |  | Active |  |
| Cc1cccc(/C(O)=C(\O)c2cccc(C)n2)n1 |  | Non-toxic | 51.9 |  |  | Active |  |
| Cc1cc(C(C)(C)C)c(O)c(C(C)(C)C)c1 [BUTYLATED HYDROXYTOLUENE] |  | Toxic |  |  |  |  |  |
| COc1cccc(C(=O)C(=O)c2cccc(OC)n2)n1 | Active | Non-toxic |  |  |  |  |  |
| COc1ccc(C(=O)C(=O)c2ccc(OC)cn2)nc1 | inactive | Non-toxic |  |  |  |  |  |
| Cc1ccc(C(=O)C(=O)c2ccc(C)cn2)nc1 | Active | Non-toxic |  |  |  |  |  |
